Laboratory results taken from ChEMBL document CHEMBL1201862, “PubChem BioAssay data set” (2004).
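Growth conditions: 96-well plates. Treatment: test compound, 48 hours, 5 concentrations. Analysis: linear interpolation between bracketing concentrations; unreached endpoints set to highest concentration. GI50 = concentration required for 50% inhibition of growth.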 Calls of active or inactive are those of the source. Cut-off read from the data, not from the text of the source: active = GI50 up to about 1.1 µM and inactive = higher.

Key:
Test in all cases: inhibition of tumour cell growth, NCI panel, 48 h
RPMI-8226 = system: RPMI-8226
UO-31 = system: UO-31
PC-3 = system: PC-3
MDA-MB-435 = system: MDA-MB-435
NCI-H522 = system: NCI-H522
SK-OV-3 = system: SK-OV-3
OVCAR-3 = system: OVCAR-3
K562 = system: K562
UACC-257 = system: UACC-257
HT-29 = system: HT-29
786-0 = system: 786-0
SK-MEL-5 = system: SK-MEL-5
Malme-3M = system: Malme-3M
HOP-92 = system: HOP-92
HCT-15 = system: HCT-15
HOP-62 = system: HOP-62
CAKI-1 = system: CAKI-1
HCC 2998 = system: HCC 2998
NCI-H226 = system: NCI-H226
M14 = system: M14
SNB-19 = system: SNB-19
HL-60 = system: HL-60
KM12 = system: KM12
U-251 = system: U-251
MCF7 = system: MCF7
LOX IMVI = system: LOX IMVI
ACHN = system: ACHN
OVCAR-4 = system: OVCAR-4
UACC-62 = system: UACC-62
NCI/ADR-RES = system: NCI/ADR-RES
MDA-MB-231 = system: MDA-MB-231
T47D = system: T47D
TK-10 = system: TK-10
NCI-H23 = system: NCI-H23
CCRF-CEM = system: CCRF-CEM
SW-620 = system: SW-620
OVCAR-8 = system: OVCAR-8
SK-MEL-28 = system: SK-MEL-28
HCT-116 = system: HCT-116
MDA-N = system: MDA-N
IGROV-1 = system: IGROV-1
RXF 393 = system: RXF 393
SK-MEL-2 = system: SK-MEL-2
A549 = system: A549
NCI-H460 = system: NCI-H460
Hs-578T = system: Hs-578T
DU-145 = system: DU-145
EKVX = system: EKVX
COLO 205 = system: COLO 205
SF-295 = system: SF-295
OVCAR-5 = system: OVCAR-5
SF-268 = system: SF-268
SR = system: SR
SF-539 = system: SF-539
SNB-75 = system: SNB-75
SN12C = system: SN12C
MOLT-4 = system: MOLT-4

## CC(NCc1c(O)ccc2ccc(=O)oc12)C(=O)O (configuration not stated)
RPMI-8226
  GI50: > 100 µM (inactive)
UO-31
  GI50: > 100 µM (inactive)
PC-3
  GI50: > 100 µM (inactive)
MDA-MB-435
  GI50: > 100 µM (inactive)
NCI-H522
  GI50: > 100 µM (inactive)
SK-OV-3
  GI50: > 100 µM (inactive)
OVCAR-3
  GI50: > 100 µM (inactive)
K562
  GI50: > 100 µM (inactive)
UACC-257
  GI50: > 100 µM (inactive)
HT-29
  GI50: > 100 µM (inactive)
786-0
  GI50: > 100 µM (inactive)
SK-MEL-5
  GI50: > 100 µM (inactive)
Malme-3M
  GI50: > 100 µM (inactive)
HOP-92
  GI50: > 100 µM (inactive)
HCT-15
  GI50: > 100 µM
HOP-62
  GI50: > 100 µM (inactive)
CAKI-1
  GI50: > 100 µM (inactive)
HCC 2998
  GI50: > 100 µM (inactive)
NCI-H226
  GI50: > 100 µM (inactive)
M14
  GI50: > 100 µM (inactive)
SNB-19
  GI50: > 100 µM (inactive)
HL-60
  GI50: > 100 µM (inactive)
KM12
  GI50: > 100 µM (inactive)
U-251
  GI50: > 100 µM (inactive)
MCF7
  GI50: > 100 µM (inactive)
LOX IMVI
  GI50: > 100 µM (inactive)
ACHN
  GI50: > 100 µM (inactive)
OVCAR-4
  GI50: > 100 µM (inactive)
UACC-62
  GI50: > 100 µM (inactive)
NCI/ADR-RES
  GI50: > 100 µM (inactive)
MDA-MB-231
  GI50: > 100 µM (inactive)
T47D
  GI50: > 100 µM (inactive)
TK-10
  GI50: > 100 µM (inactive)
NCI-H23
  GI50: > 100 µM (inactive)
CCRF-CEM
  GI50: > 100 µM (inactive)
SW-620
  GI50: > 100 µM (inactive)
OVCAR-8
  GI50: > 100 µM (inactive)
SK-MEL-28
  GI50: > 100 µM (inactive)
HCT-116
  GI50: > 100 µM (inactive)
MDA-N
  GI50: > 100 µM (inactive)
IGROV-1
  GI50: > 100 µM (inactive)
RXF 393
  GI50: > 100 µM (inactive)
SK-MEL-2
  GI50: > 100 µM (inactive)
A549
  GI50: > 100 µM (inactive)
NCI-H460
  GI50: > 100 µM (inactive)
Hs-578T
  GI50: > 100 µM (inactive)
DU-145
  GI50: > 100 µM (inactive)
EKVX
  GI50: > 100 µM (inactive)
COLO 205
  GI50: > 100 µM (inactive)
SF-295
  GI50: > 100 µM (inactive)
OVCAR-5
  GI50: > 100 µM (inactive)
SF-268
  GI50: > 100 µM (inactive)
SR
  GI50: > 100 µM (inactive)
SF-539
  GI50: > 100 µM (inactive)
SNB-75
  GI50: > 100 µM (inactive)
SN12C
  GI50: > 100 µM (inactive)
MOLT-4
  GI50: > 100 µM (inactive)
